Assay results reported in patent EP1743636A1, “Combination of a substituted pyrazoline compound and a drug used in food-related disorders” (LABORATORIOS DEL DR. ESTEVE, S.A., priority 2005, dated 2007).
Like-named read-outs stand apart in the source and are kept apart here.

Experiments:
Male NMRI mice [1] = test: Mouse tetrad model: catalepsy; assay type: in vivo; conditions: for Antagonistic Effect C: Catalepsy: 5 mg/kg i.v. prior to Win 55212-2 in a dose of 1,25mg/kg i.v.; for Agonistic effect C: Catalepsy: 5 mg/kg i.v., measured 20 minutes after injection
From the text: (§1) Substances with affinity for cannabinoid receptors are known to produce a wide range of pharmacological effects. It is also known that intravenous administration of a substance with affinity for cannabinoid receptors in mice produces analgesia , hypothermia, sedation and catalepsy. Individually, none of these effects can be considered as proof that a tested substance has affinity for cannabinoid-receptors, since all of these effects are common for various classes of centrally active agents. However, substances, which show all of these effects, i.e. substances that are active in this so-called tetrad model are considered to have affinity for the cannabinoid receptors. It has further been shown that cannabinoid receptor antagonists are higly effective in blocking the effects of a cannabinoid agonist in the mouse tetrad model.
(§2) The tetrad model is described, for example, in the publication of A. C. Howlett et al, International Union of Pharmacology XXVII. Classification of Cannabinoid Receptors, Pharmacol Rev 54, 161-202, 2002 and David R. Compton et al., "In-vivo Characterization of a Specific Cannabinoid Receptor Antagonist (SR141716A) :Inhibition of Tetrahydrocannbinol- induced Responses and Apparent Agonist Activity", J. Pharmacol. Exp. Ther. 277 , 2, 586-594, 1996. The corresponding parts of the description are hereby incorporated by reference. […]
(§3) Before testing in the behavioral procedures given below, mice are acclimatized to the experimental setting. Pre-Treatment control values are determined for analgesia hot plate latency (in seconds), rectal temperature, sedation and catalepsy.
(§4) In order to determine the agonistic activty of the substance to be tested, the mice are injected intravenously with the substance to be tested or the vehicle alone. 15 minutes after injection, latency in hot plate analgesia is measured. Rectal temperature, sedation and catalepsy are measured 20 minutes after injection.
(§5) In order to determine the antagonistic activity the identical procedure is used as for the determination of the agonistic effects, but with the difference that the substance to be evaluated for its antagonistic activity is injectected 5 minutes before the intravenous injection of 1.25 mg/kg Win-55,212 a known cannabinoid-receptor agonist.
Catalepsy is determined according to the method described in Alpermann H. G. et al. "Pharmacological effets of Hoe 249: A new potential antidepressant", Drugs Dev. […]
The cataleptic effect of the substance to be tested is evaluated according to the duration of catalepsy, whereby the animals are placed head downwards with their kinlegs upon the top of the wooden block. […]
The percentage of catalepsy is determined according ot the following formula: %Catalepsy = arithmetic mean/6 × 100 [formula] […]

[2] = molecular target: T1, transfected human CB1 receptors (Homo sapiens, UniProt P21554); test: In-vitro determination of affinity to CB1 receptor (radioligand [3H]-CP55940); assay type: binding; conditions: for inhibition at 1 µM: read-out: CB1-Receptor % Inhibition 10^-6 M
T1 construct: purchased Receptor Biology, Inc
Method: (§6) The in-vitro determination of the affinity of the substituted pyrazoline compounds to CB1/CB2-Rezeptors is carried out as described in the publication of Ruth A. Ross, Heather C. Brockie et al., "Agonist-inverse agonist characterization at CB1 and CB2 cannabinoid receptors of L-759633, L759656 and AM630", British Journal of Pharmacology, 126, 665-672, (1999), whereby the transfected human CB1 and CB2 receptors of Receptor Biology, Inc. are used. The radioligand used for both receptors is [^3H]-CP55940. The respective parts of the description is hereby incorporated by reference and forms part of the present disclosure. The affinity of the inventive substituted pyrazoline compounds to CB1/CB2 receptors was determined as described above.

Male NMRI mice [3] = test: Mouse tetrad model: hot plate analgesia; assay type: in vivo; conditions: for Antagonistic Effect A: Hot-Plate test: 5 mg/kg i.v. prior to Win 55212-2 in a dose of 1,25mg/kg i.v.; for Agonistic effect A: Hot-Plate test: 5 mg/kg i.v., measured 15 minutes after injection
From the text: as §1, §2, §3, §4, §5
The hot plate analgesia is determined according to the method described in Woolfe D. et al. "The evaluation of analgesic action of pethidine hydrochloride (Demerol)", J. Pharmacol. Exp. Ther. 80, 300-307,1944. […]
The mice are placed on a hot plate (Harvard Analgesimeter) at 55 ± 0.5 °C until they show a painful sensation by licking their paws or jumping and the time for these sensations to occur is recorded. This reading is considered the basal value (B). […]
(§7) The determinination of cannabinoid activity in-vivo was determined as described above. […]

Male NMRI mice [4] = test: Mouse tetrad model: hypothermia; assay type: in vivo; conditions: for Antagonistic Effect B: Hypothermia: 5 mg/kg i.v. prior to Win 55212-2 in a dose of 1,25mg/kg i.v.; for Agonistic effect B: Hypothermia: 5 mg/kg i.v., measured 20 minutes after injection
From the text: as §1, §2, §3, §4, §5
Hypothermia is determined according to the method described in David R. Compton et al. "In-vivo Characterization of a Specific Cannabinoid Receptor Antagonist (SR141716A) Inhibition of Tetrahydrocannbinol- induced Responses and Apparent Agonist Activity", J. Pharmacol Exp Ther. 277 , 2, 586-594, 1996. […]
The base-line rectal temperatures are determined with a thermometer (Yello Springs Instruments Co., Panlabs) and a thermistor probe inserted to 25mm before the administration of the substance to be tested. […]

Male NMRI mice [5] = test: Mouse tetrad model: sedation and ataxia; assay type: in vivo; conditions: for Antagonistic Effect D: Sedation: 5 mg/kg i.v. prior to Win 55212-2 in a dose of 1,25mg/kg i.v.; for Agonistic effect D: Sedation: 5 mg/kg i.v., measured 20 minutes after injection
From the text: as §1
The tetrad model is described, for example, in the publication of A. C. Howlett et al, International Union of Pharmacology XXVII. Classification of Cannabinoid Receptors, Pharmacol Rev 54, 161-202, 2002 and David R. Compton et al., "In-vivo Characterization of a Specific Cannabinoid Receptor Antagonist (SR141716A) :Inhibition of Tetrahydrocannbinol- induced Responses and Apparent Agonist Activity", J. Pharmacol. Exp. Ther. 277 , 2, 586-594, 1996. The corresponding parts of the description are hereby incorporated by reference.
Male NMRI mice with a weight of 20-30 g (Harlan, Barcelona, Spain) are used in all of the following experiments.
as §3, §4, §5
Sedation and ataxia is determined according to the method described in Desmet L. K. C. et al. "Anticonvulsive properties of Cinarizine and Flunarizine in Rats and Mice", Arzneim. -Forsch. (Frug Res) 25, 9, 1975. […]
The percentage of sedation is determined according to the formula: %of sedation = arithmetic mean/3 × 100 [formula]
as §7

[6] = molecular target: T2, transfected human CB2 receptors (Homo sapiens, UniProt P34972); test: In-vitro determination of affinity to CB2 receptor (radioligand [3H]-CP55940); assay type: binding; conditions: for Ki: radioligand [3H]-CP55940; for inhibition at 1 µM: read-out: CB2-Receptor % Inhibition 10^-6 M
T2 construct: purchased Receptor Biology, Inc
Method: as §6

T2 sequence (P34972 whole entry): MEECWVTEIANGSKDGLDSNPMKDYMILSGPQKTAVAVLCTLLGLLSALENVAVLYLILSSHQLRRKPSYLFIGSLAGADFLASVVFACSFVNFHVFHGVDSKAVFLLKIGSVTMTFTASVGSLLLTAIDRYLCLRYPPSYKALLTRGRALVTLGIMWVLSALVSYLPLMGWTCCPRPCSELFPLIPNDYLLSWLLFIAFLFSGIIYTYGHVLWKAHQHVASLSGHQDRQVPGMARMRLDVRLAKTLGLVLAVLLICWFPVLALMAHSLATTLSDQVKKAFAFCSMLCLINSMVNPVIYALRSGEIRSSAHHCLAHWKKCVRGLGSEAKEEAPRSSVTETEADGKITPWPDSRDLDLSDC
T1 sequence (P21554 whole entry): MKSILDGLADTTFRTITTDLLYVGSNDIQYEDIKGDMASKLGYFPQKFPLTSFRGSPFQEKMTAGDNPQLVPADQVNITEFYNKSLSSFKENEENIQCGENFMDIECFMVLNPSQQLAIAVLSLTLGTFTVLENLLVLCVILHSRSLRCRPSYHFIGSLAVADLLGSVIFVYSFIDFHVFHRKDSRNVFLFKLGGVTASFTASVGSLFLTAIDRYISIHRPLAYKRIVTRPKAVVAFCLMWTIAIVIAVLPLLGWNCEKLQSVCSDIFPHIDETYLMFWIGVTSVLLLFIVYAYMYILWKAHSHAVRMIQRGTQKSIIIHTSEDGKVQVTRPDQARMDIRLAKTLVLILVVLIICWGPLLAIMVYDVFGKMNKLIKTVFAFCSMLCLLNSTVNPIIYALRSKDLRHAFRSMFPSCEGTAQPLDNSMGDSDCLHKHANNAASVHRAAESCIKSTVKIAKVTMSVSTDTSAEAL

Structure (SMILES)	Antagonistic Effect C: Catalepsy (Male NMRI mice [1])	Agonistic effect C: Catalepsy (Male NMRI mice [1])	Ki [2] [µM]	inhibition at 1 µM [2] [%]	Antagonistic Effect A: Hot-Plate test (Male NMRI mice [3])	Agonistic effect A: Hot-Plate test (Male NMRI mice [3])	Antagonistic Effect B: Hypothermia (Male NMRI mice [4])	Agonistic effect B: Hypothermia (Male NMRI mice [4])	Antagonistic Effect D: Sedation (Male NMRI mice [5])	Agonistic effect D: Sedation (Male NMRI mice [5])	Ki [6] [µM]	inhibition at 1 µM [6] [%]	Ki ([2]; radioligand [3H]-CP55940, read-out: CB1-Receptor Ki) [µM]
O=C(NN1CCCCC1)C1=NN(c2ccc(Cl)cc2Cl)C(c2ccc(Cl)cc2)C1 (stereo not drawn) [Example 1, N-piperidinyl-5-(4-chlorophenyl)-1-(2,4-dichlorophenyl)-4,5-dihydro-1H-pyrazole-3-carboxamide]	100	0	< 0.025	93	74	0	100	0	100	0	> 1	33	–
O=C(C1=NN(c2ccc(Cl)cc2Cl)C(c2ccc(Cl)cc2)C1)N1CCCCC1 (stereo not drawn) [Example 5, [5-(4-Chloro-phenyl)-1-(2,4-dichloro-phenyl)-4,5-dihydro-1H-pyrazol-3-yl]-piperidin-1-yl-methanone]	20	0	–	79	50	0	40	50	20	0	~1	54	0.111
